Key:
[1] = Volume of distribution at steady state in rat at 1 mg/kg, iv or 1.3 mg/kg, po; type: ADME, organism-based; details: in vivo, read-out: Vdss
[2] = Oral bioavailability in rat at 1.3 mg/kg; type: ADME, organism-based; details: in vivo
[3] = Half life in rat at 1.3 mg/kg, po; type: ADME, organism-based; parameters: dose 1.3 mg/kg, route oral; details: in vivo
[4] = Cmax in rat at 1.3 mg/kg, po; type: ADME, organism-based; parameters: dose 1.3 mg/kg, route oral; details: in vivo
[5] = Plasma clearance in rat at 1.3 mg/kg, po; type: ADME, organism-based; parameters: dose 1.3 mg/kg, route oral
[6] = AUC (0 to t) in rat at 1.3 mg/kg, po; type: ADME, organism-based; parameters: dose 1.3 mg/kg, route oral; details: plasma
[7] = Plasma clearance in monkey at 1.6 mg/kg, po; type: ADME, organism-based, Macaca mulatta; parameters: dose 1.6 mg/kg, route oral; details: rhesus monkey
[8] = Half life in monkey at 1.6 mg/kg, po; type: ADME, organism-based, Macaca mulatta; parameters: dose 1.6 mg/kg, route oral; details: rhesus monkey, in vivo
[9] = AUC (0 to t) in rat at 2.2 mg/kg, po; type: ADME, organism-based; parameters: dose 2.2 mg/kg, route oral; details: plasma
[10] = AUC (0 to t) in monkey at 1.6 mg/kg, po; type: ADME, organism-based, Macaca mulatta; parameters: dose 1.6 mg/kg, route oral; details: rhesus monkey, plasma
[11] = Half life in rat at 2.2 mg/kg, po; type: ADME, organism-based; parameters: dose 2.2 mg/kg, route oral; details: in vivo
[12] = Volume of distribution at steady state in monkey at 1 mg/kg, iv or 1.6 mg/kg, po; type: ADME, organism-based, Macaca mulatta; details: rhesus monkey, in vivo, read-out: Vdss
[13] = Oral bioavailability in monkey at 1.6 mg/kg, po; type: ADME, organism-based, Macaca mulatta; details: rhesus monkey, in vivo
[14] = Volume of distribution at steady state in rat at 1 mg/kg, iv or 2.2 mg/kg, po; type: ADME, organism-based; details: in vivo, read-out: Vdss
[15] = Cmax in rat at 2.2 mg/kg, po; type: ADME, organism-based; parameters: dose 2.2 mg/kg, route oral; details: in vivo
[16] = Oral bioavailability in rat at 2.2 mg/kg; type: ADME, organism-based; details: in vivo
[17] = Plasma clearance in rat at 2.2 mg/kg, po; type: ADME, organism-based; parameters: dose 2.2 mg/kg, route oral
[18] = Cmax in monkey at 1.6 mg/kg, po; type: ADME, organism-based, Macaca mulatta; parameters: dose 1.6 mg/kg, route oral; details: rhesus monkey, in vivo
[19] = Volume of distribution at steady state in rat at 1.1 mg/kg, iv or 0.12 mg/kg, po; type: ADME, organism-based; details: in vivo, read-out: Vdss
[20] = Oral bioavailability in rat at 0.12 mg/kg; type: ADME, organism-based; details: in vivo
[21] = Cmax in rat at 0.12 mg/kg, po; type: ADME, organism-based; parameters: dose 0.12 mg/kg, route oral; details: in vivo
[22] = Half life in rat at 0.12 mg/kg, po; type: ADME, organism-based; parameters: dose 0.12 mg/kg, route oral; details: in vivo
[23] = AUC (0 to t) in rat at 0.12 mg/kg, po; type: ADME, organism-based; parameters: dose 0.12 mg/kg, route oral; details: plasma
[24] = Plasma clearance in rat at 0.12 mg/kg, po; type: ADME, organism-based; parameters: dose 0.12 mg/kg, route oral
[25] = Oral bioavailability in monkey at 1.3 mg/kg, po; type: ADME, organism-based, Macaca mulatta; details: rhesus monkey, in vivo
[26] = Half life in monkey at 1.3 mg/kg, po; type: ADME, organism-based, Macaca mulatta; parameters: dose 1.3 mg/kg, route oral; details: rhesus monkey, in vivo
[27] = Plasma clearance in monkey at 1.3 mg/kg, po; type: ADME, organism-based, Macaca mulatta; parameters: dose 1.3 mg/kg, route oral; details: rhesus monkey
[28] = Oral bioavailability in rat at 2 mg/kg; type: ADME, organism-based; details: in vivo
[29] = Volume of distribution at steady state in monkey at 1 mg/kg, iv or 1.3 mg/kg, po; type: ADME, organism-based, Macaca mulatta; details: rhesus monkey, in vivo, read-out: Vdss
[30] = Cmax in rat at 2 mg/kg, po; type: ADME, organism-based; parameters: dose 2 mg/kg, route oral; details: in vivo
[31] = AUC (0 to t) in rat at 2 mg/kg, po; type: ADME, organism-based; parameters: dose 2 mg/kg, route oral; details: plasma
[32] = Plasma clearance in rat at 2.0 mg/kg, po; type: ADME, organism-based; parameters: dose 2 mg/kg, route oral
[33] = AUC (0 to t) in monkey at 1.3 mg/kg, po; type: ADME, organism-based, Macaca mulatta; parameters: dose 1.3 mg/kg, route oral; details: rhesus monkey, plasma
[34] = Half life in rat at 2 mg/kg, po; type: ADME, organism-based; parameters: dose 2 mg/kg, route oral; details: in vivo
[35] = Cmax in monkey at 1.3 mg/kg, po; type: ADME, organism-based, Macaca mulatta; parameters: dose 1.3 mg/kg, route oral; details: rhesus monkey, in vivo
[36] = Volume of distribution at steady state in rat at 1.1 mg/kg, iv or 2 mg/kg, po; type: ADME, organism-based; details: in vivo, read-out: Vdss

Compound CCN1C[C@@H](N(Cc2cc(F)ccc2Cl)c2ccc(C#N)c(Cl)c2)CC1=O has a Vd [1] of 15 L/kg, a bioavailability [2] of 100% and a half-life [3] of 2 h. The Cmax [4] was 97 ng/mL, the CL/F [5] was 75 mL/min/kg and the AUC(0-t) [6] was 290 ng·h/mL.

For CN1C[C@@H](N(Cc2cccc(F)c2F)c2ccc(C#N)c(Cl)c2)CC1=O, the CL/F [7] was 110 mL/min/kg, the half-life [8] was 1.4 h and the AUC(0-t) [9] was 2300 ng·h/mL. It also gave an AUC(0-t) [10] of 270 ng·h/mL, a half-life [11] of 6.2 h and a Vd [12] of 1.7 L/kg. It also gave a bioavailability [13] of 15%, a Vd [14] of 3.4 L/kg and a Cmax [15] of 660 ng/mL. It also gave a bioavailability [16] of 100%, a CL/F [17] of 16 mL/min/kg and a Cmax [18] of 92 ng/mL.

CC(C)N1C[C@@H](N(Cc2ccccc2Cl)c2ccc(C#N)c(Cl)c2)CC1=O gave a Vd [19] of 42 L/kg, a bioavailability [20] of 100% and a Cmax [21] of 10 ng/mL. It also gave a half-life [22] of 5.8 h, an AUC(0-t) [23] of 30 ng·h/mL and a CL/F [24] of 40 mL/min/kg.

In the case of CCN1C[C@@H](N(Cc2cc(Cl)ccc2Cl)c2ccc(C#N)c(Cl)c2)CC1=O, the bioavailability [25] is reported as 4.9%, the half-life [26] is reported as 1.5 h and the CL/F [27] is reported as 480 mL/min/kg. It also gave a bioavailability [28] of 100%, a Vd [29] of 2.8 L/kg and a Cmax [30] of 84 ng/mL. The AUC(0-t) [31] was 150 ng·h/mL, the CL/F [32] was 230 mL/min/kg and the AUC(0-t) [33] was 32 ng·h/mL. The half-life [34] was 1.8 h, the Cmax [35] was 15 ng/mL and the Vd [36] was 35 L/kg.

Source: ChEMBL document CHEMBL1154038, “Discovery of orally active, pyrrolidinone-based progesterone receptor partial agonists” (Bioorg Med Chem Lett, 2009)
